The target in assay [1] is T1, Fatty-acid amide hydrolase 1 (Mus musculus, UniProt O08914).
T1 sequence (O08914 whole entry): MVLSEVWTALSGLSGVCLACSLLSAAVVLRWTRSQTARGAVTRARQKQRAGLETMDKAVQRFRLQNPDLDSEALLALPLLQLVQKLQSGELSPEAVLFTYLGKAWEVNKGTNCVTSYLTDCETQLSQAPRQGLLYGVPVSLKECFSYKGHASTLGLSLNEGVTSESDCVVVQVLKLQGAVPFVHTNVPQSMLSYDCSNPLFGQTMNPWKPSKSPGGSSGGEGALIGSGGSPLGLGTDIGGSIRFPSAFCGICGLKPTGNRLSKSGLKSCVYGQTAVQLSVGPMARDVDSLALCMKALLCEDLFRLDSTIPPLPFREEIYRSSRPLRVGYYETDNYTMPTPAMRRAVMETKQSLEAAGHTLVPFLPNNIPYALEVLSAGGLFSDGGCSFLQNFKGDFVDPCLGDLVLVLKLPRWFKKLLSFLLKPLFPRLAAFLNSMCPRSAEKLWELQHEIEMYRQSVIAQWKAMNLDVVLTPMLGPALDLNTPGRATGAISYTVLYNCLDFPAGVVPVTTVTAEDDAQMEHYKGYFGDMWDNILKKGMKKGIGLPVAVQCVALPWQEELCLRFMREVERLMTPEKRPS
The experiment in a line: Inhibitory potency of Fatty-acid amide hydrolase with Mouse brain membrane.

In assay [2] the target is Cannabinoid receptor 1 (Mus musculus, UniProt P47746). The experiment in a line: Binding affinity towards Cannabinoid receptor 1 was determined using [3H]-CP- cannabinoid as radioligand with mouse brain membrane in the presence of PMSF.
For assay [3], the target named is T1, Fatty-acid amide hydrolase 1. The experiment in a line: Inhibitory potency of Fatty-acid amide hydrolase with Mouse brain membrane in the presence of PMSF.
Assay [4] has as its target Cannabinoid receptor 1 (Rattus norvegicus, UniProt P20272). Put plainly: Binding affinity towards Cannabinoid receptor 1 was determined using [3H]-CP- cannabinoid as radioligand with rat brain membrane.
Assay [5] addresses T2, Fatty-acid amide hydrolase 1 (Rattus norvegicus, UniProt P97612).
T2 sequence (P97612 whole entry): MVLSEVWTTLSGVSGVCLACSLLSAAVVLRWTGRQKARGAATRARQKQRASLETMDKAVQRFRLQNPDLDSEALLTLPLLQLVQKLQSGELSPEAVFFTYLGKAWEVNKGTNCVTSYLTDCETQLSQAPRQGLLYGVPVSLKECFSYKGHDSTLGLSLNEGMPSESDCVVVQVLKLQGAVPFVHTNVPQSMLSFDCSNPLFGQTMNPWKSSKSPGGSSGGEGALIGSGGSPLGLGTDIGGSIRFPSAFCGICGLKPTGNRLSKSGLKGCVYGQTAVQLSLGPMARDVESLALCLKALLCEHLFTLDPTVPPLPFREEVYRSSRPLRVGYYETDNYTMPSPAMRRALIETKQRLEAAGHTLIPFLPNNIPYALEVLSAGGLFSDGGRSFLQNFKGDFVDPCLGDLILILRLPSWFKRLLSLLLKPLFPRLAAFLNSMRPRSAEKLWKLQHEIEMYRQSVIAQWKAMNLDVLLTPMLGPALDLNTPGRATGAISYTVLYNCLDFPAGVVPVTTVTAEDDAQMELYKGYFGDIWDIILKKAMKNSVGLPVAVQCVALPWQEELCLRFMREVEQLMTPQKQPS
Put plainly: Inhibitory potency of Fatty-acid amide hydrolase with rat brain membrane.

Where only a bound is given, the exact number is not on record here.

Cannabinoid receptor 1 (Rattus norvegicus, UniProt P20272), sequence (P20272 whole entry): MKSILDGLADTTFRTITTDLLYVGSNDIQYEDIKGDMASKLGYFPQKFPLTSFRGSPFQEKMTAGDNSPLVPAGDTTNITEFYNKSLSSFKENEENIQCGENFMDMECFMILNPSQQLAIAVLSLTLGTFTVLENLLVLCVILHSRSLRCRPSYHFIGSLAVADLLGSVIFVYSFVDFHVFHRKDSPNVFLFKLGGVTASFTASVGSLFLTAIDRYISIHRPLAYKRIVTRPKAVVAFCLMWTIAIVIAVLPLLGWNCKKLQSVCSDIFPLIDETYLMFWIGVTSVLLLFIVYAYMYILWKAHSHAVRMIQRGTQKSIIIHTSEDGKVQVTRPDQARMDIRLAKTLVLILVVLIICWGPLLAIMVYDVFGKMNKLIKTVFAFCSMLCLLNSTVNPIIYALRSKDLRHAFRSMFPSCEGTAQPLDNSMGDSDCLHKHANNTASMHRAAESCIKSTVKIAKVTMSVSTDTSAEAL
Cannabinoid receptor 1 (Mus musculus, UniProt P47746), sequence (P47746 whole entry): as the sequence (P20272 whole entry) above, with E95D counted along it

Turning to `CCCCC/C=C\C/C=C\C/C=C\C/C=C\CCCCS(=O)(=O)F`, the IC50 in assay [1] was determined as 0.11 nM.

With `CCCCC/C=C\C/C=C\C/C=C\C/C=C\CCCCS(=O)(=O)NCCO`, the IC50 at Cannabinoid receptor 1 [2] was over 100000 nM; in assay [3], about 10000 nM.

For the compound `CCCCCCCCCCCCS(=O)(=O)F` [DODECANESULFONYL FLUORIDE], the figures for the IC50 (on Cannabinoid receptor 1 [4]; in assay [5]; in assay [1]) were 18 nM, 3 nM and 2 nM, respectively.

The term IC50 denotes the point on the concentration scale where inhibition reaches its midpoint.

For the origin of these results see ChEMBL document CHEMBL1136242, “Arachidonylsulfonyl derivatives as cannabinoid CB1 receptor and fatty acid amide hydrolase inhibitors” (Bioorg Med Chem Lett, 2003).
